# According to patent US12264173B2 (GILEAD SCIENCES, INC., priority 2020, dated 2025):
# Like-named read-outs stand apart in the source and are kept apart here.
# Tests used:
# Type in all cases: cell-based
# RSV strain A2 = experiment: microbe, parasite or virus in culture; settings: human respiratory syncytial virus, read-out: RSV HEp-2 EC50
# Method in brief: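 Cytopathic-effect protection assay: HEp-2 cells (50,000/mL) infected with pre-titered RSV A2 onto 3-fold serial compound dilutions, incubated 4 days at 37° C. Cell viability read by CellTiter-Glo luminescence; percent inhibition derived against 0% and 100% virus-inhibition controls.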
# RSV A2 = experiment: RSV NHBE EC50 (RSV A2 antiviral assay in NHBE cells); settings: human respiratory syncytial virus, NHBE, read-out: RSV NHBE EC50
# Method in brief: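 Antiviral activity against RSV A2 was determined in NHBE cells used within 6 passages, with cell viability quantified by CellTiter-Glo after a 4-day infection.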
# HRV16 = HRV16 HeLa EC50 (cytopathic effect in H1-HeLa cells); settings: read-out: HRV16 HeLa EC50
# Method in brief: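 H1-HeLa cells seeded one day before, given 3-fold serial compound dilutions in triplicate just prior to infection with pre-titrated virus. Incubated 96 h at 33 °C/5% CO2; protection from cytopathic effect read as viability by CellTiter-Glo luminescence, normalised to infected untreated (0%) and uninfected (100%) controls.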
# DENV2 replicon = experiment: DENV-2 Huh-7 Rep EC50 (replicon luminescence); settings: Dengue virus, DENV2, Huh-7, 48 h
# Method in brief: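 Huh-7 cells carrying a DENV2 replicon, 5,000 cells/well, were incubated with dosed compounds for 48 h at 37° C. EnduRen live-cell substrate was added 1.5 h before luminescence reading. EC50 came from dose-response against DMSO-only wells.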
# [1] = HEp-2, 96 h, Table 3, HEp-2 cells, RSV A2, 4 days
# [2] = 96 h, Table 3, NHBE cells, RSV A2, 4 days
# [3] = 96 h, Table 3, H1-HeLa cells, 96 h
# [4] = read-out: DENV-2 REP Huh7 EC50, Table 3, Huh-7 DENV2 replicon cells, 48 hours
Structure (SMILES),EC50 (RSV strain A2; [1]) [nM],EC50 (RSV A2; [2]) [nM],EC50 (HRV16; [3]) [nM],EC50 (DENV2 replicon; read-out: DENV-2 REP Huh7 EC50) [nM],"EC50 (RSV strain A2; HEp-2, Table 5 comparative activity, 2',3'-OH vs -OC(O)iPr) [nM]","EC50 (RSV A2; Table 5 comparative activity, 2',3'-OH vs -OC(O)iPr) [nM]","EC50 (HRV16; HeLa, Table 5 comparative activity, 2',3'-OH vs -OC(O)iPr) [nM]",EC50 (DENV2 replicon; [4]) [nM]
"CC(C)[C@@H](N)C(=O)O[C@H]1[C@H](c2ccc3c(N)ncnn23)O[C@](C#N)(CO[P@@](=O)(N[C@@H](C)C(=O)OC2CCCCC2)Oc2ccccc2)[C@H]1OC(=O)[C@H](N)C(C)C [Example 153, (2R,3S,4S,5S)-5-(4-aminopyrrolo[2,1-f][1,2,4]triazin-7-yl)-2-cyano-2-((((S)-(((S)-1-(cyclohexyloxy)-1-oxopropan-2-yl)amino)(phenoxy)phosphoryl)oxy)methyl)tetrahydrofuran-3,4-diyl (2R,2′R)-bis(2-amino-3-methylbutanoate)]",110,283,470,6680,–,–,–,–
"CO[C@H](C)C(=O)O[C@H]1[C@H](c2ccc3c(N)ncnn23)O[C@](C#N)(CO[P@@](=O)(N[C@@H](C)C(=O)OC(C)C)Oc2ccccc2)[C@H]1OC(=O)[C@@H](C)OC [Example 154, (2R,3S,4S,5S)-5-(4-aminopyrrolo[2,1-f][1,2,4]triazin-7-yl)-2-cyano-2-((((S)-(((S)-1-isopropoxy-1-oxopropan-2-yl)amino)(phenoxy)phosphoryl)oxy)methyl) tetrahydrofuran-3,4-diyl (2R,2′R)-bis(2-methoxypropanoate)]",185,114,874,20500,–,–,–,–
"CO[C@H](C)C(=O)Nc1ncnn2c([C@@H]3O[C@](C#N)(CO[P@@](=O)(N[C@@H](C)C(=O)OC(C)C)Oc4ccccc4)[C@@H](OC(=O)[C@@H](C)OC)[C@H]3OC(=O)[C@@H](C)OC)ccc12 [Example 155, (2R,3S,4S,5S)-2-cyano-2-((((S)-(((S)-1-isopropoxy-1-oxopropan-2-yl)amino)(phenoxy)phosphoryl)oxy)methyl)-5-(4-((R)-2-methoxypropanamido)pyrrolo[2,1-f][1,2,4]triazin-7-yl)tetrahydrofuran-3,4-diyl (2R,2′R)-bis(2-methoxypropanoate)]",437,294,2680,29200,–,–,–,–
"CC(C)OC(=O)[C@H](C)N[P@](=O)(OC[C@@]1(C#N)O[C@@H](c2ccc3c(N)ncnn23)[C@H](OC(=O)C2CCOCC2)[C@@H]1OC(=O)C1CCOCC1)Oc1ccccc1 [Example 156, (2R,3S,4S,5S)-5-(4-aminopyrrolo[2,1-f][1,2,4]triazin-7-yl)-2-cyano-2-((((S)-(((S)-1-isopropoxy-1-oxopropan-2-yl)amino)(phenoxy)phosphoryl)oxy)methyl) tetrahydrofuran-3,4-diyl bis(tetrahydro-2H-pyran-4-carboxylate)]",456,> 5000,21700,> 50000,–,–,–,–
"CC(C)OC(=O)[C@H](C)N[P@](=O)(OC[C@@]1(C#N)O[C@@H](c2ccc3c(N)ncnn23)[C@H](OC(=O)[C@@H](N)C(C)C)[C@@H]1OC(=O)[C@@H](N)C(C)C)Oc1ccccc1 [Example 157, (2R,3S,4S,5S)-5-(4-aminopyrrolo[2,1-f][1,2,4]triazin-7-yl)-2-cyano-2-((((S)-(((S)-1-isopropoxy-1-oxopropan-2-yl)amino)(phenoxy)phosphoryl)oxy)methyl)tetrahydrofuran-3,4-diyl (2S,2'S)-bis(2-amino-3-methylbutanoate)]",227,1590,1790,25800,–,–,–,–
"CO[C@@H](C)C(=O)O[C@H]1[C@H](c2ccc3c(N)ncnn23)O[C@](C#N)(CO[P@@](=O)(N[C@@H](C)C(=O)OC(C)C)Oc2ccccc2)[C@H]1OC(=O)[C@H](C)OC [Example 158, (2R,3S,4S,5S)-5-(4-aminopyrrolo[2,1-f][1,2,4]triazin-7-yl)-2-cyano-2-((((S)-(((S)-1-isopropoxy-1-oxopropan-2-yl)amino)(phenoxy)phosphoryl)oxy)methyl) tetrahydrofuran-3,4-diyl (2S,2'S)-bis(2-methoxypropanoate)]",139,52,731,15700,–,–,–,–
"CCC(=O)O[C@H]1[C@H](c2ccc3c(N)ncnn23)O[C@](C#N)(COP(=O)(N[C@@H](C)C(=O)OC[C@H]2CC[C@H](N)CC2)Oc2ccccc2)[C@H]1OC(=O)CC (stereo partly drawn) [Example 159, (2R,3S,4S,5S)-2-((((((S)-1-(((1r,4S)-4-aminocyclohexyl)methoxy)-1-oxopropan-2-yl)amino)(phenoxy)phosphoryl)oxy)methyl)-5-(4-aminopyrrolo[2,1-f][1,2,4]triazin-7-yl)-2-cyanotetrahydrofuran-3,4-diyl dipropionate]",7990,1550,33100,> 50000,–,–,–,–
"COCCOCC(=O)O[C@H]1[C@H](c2ccc3c(N)ncnn23)O[C@](C#N)(CO[P@@](=O)(N[C@@H](C)C(=O)OC(C)C)Oc2ccccc2)[C@H]1OC(=O)COCCOC [Example 161, (2R,3S,4S,5S)-5-(4-aminopyrrolo[2,1-f][1,2,4]triazin-7-yl)-2-cyano-2-((((S)-(((S)-1-isopropoxy-1-oxopropan-2-yl)amino)(phenoxy)phosphoryl)oxy)methyl) tetrahydrofuran-3,4-diyl bis(2-(2-methoxyethoxy)acetate)]",151,1160,1230,22500,–,–,–,–
"COC(=O)[C@H](C)N[P@](=O)(OC[C@@]1(C#N)O[C@@H](c2ccc3c(N)ncnn23)[C@H](OC(=O)[C@@H](C)OC)[C@@H]1OC(=O)[C@@H](C)OC)Oc1ccccc1 [Example 166, (2R,3S,4S,5S)-5-(4-aminopyrrolo[2,1-f][1,2,4]triazin-7-yl)-2-cyano-2-((((S)-(((S)-1-methoxy-1-oxopropan-2-Yl)amino)(phenoxy)phosphoryl)oxy)methyl) tetrahydrofuran-3,4-diyl (2R,2′R)-bis(2-methoxypropanoate)]",157,112,1660,21700,–,–,–,–
"CCC(=O)Nc1ncnn2c([C@@H]3O[C@](C#N)(COP(=O)(N[C@@H](C)C(=O)OC4CCOCC4)Oc4ccccc4)[C@@H](OC(=O)CC)[C@H]3OC(=O)CC)ccc12 (stereo partly drawn) [Example 170, (2R,3S,4S,5S)-2-Cyano-2-((((((S)-1-oxo-1-((tetrahydro-2H-pyran-4-yl)oxy)propan-2-yl)amino)(phenoxy)phosphoryl)oxy)methyl)-5-(4-propionamidopyrrolo[2,1-f][1,2,4]triazin-7-yl)tetrahydrofuran-3,4-diyl dipropionate]",267,80,863,15900,–,–,–,–
"CCC(=O)O[C@H]1[C@H](c2ccc3c(N)ncnn23)O[C@](C#N)(CO[P@@](=O)(N[C@@H](C)C(=O)OCC(CC)CC)Oc2ccccc2)[C@H]1OC(=O)CC [Example 180, (2R,3S,4S,5S)-5-(4-aminopyrrolo[2,1-f][1,2,4]triazin-7-yl)-2-cyano-2-((((S)-(((S)-1-(2-ethylbutoxy)-1-oxopropan-2-yl)amino)(phenoxy)phosphoryl)oxy)methyl) tetrahydrofuran-3,4-diyl dipropionate]",62,31,178,8310,–,–,–,–
"CC(C)C(=O)O[C@H]1[C@H](c2ccc3c(N)ncnn23)O[C@](C#N)(COP(=O)(N[C@@H](C)C(=O)OC2COC2)Oc2ccccc2)[C@H]1OC(=O)C(C)C (stereo partly drawn) [Example 184, (2R,3S,4S,5S)-5-(4-aminopyrrolo[2,1-f][1,2,4]triazin-7-yl)-2-cyano-2-((((((S)-1-(oxetan-3-yloxy)-1-oxopropan-2-yl)amino)(phenoxy)phosphoryl)oxy)methyl) tetrahydrofuran-3,4-diyl bis(2-methylpropanoate)]",79,13,57,5960,79,13,57,–
CCCCOC(=O)[C@H](C)NP(=O)(N[C@@H](C)C(=O)OCCCC)OC[C@@]1(C#N)O[C@@H](c2ccc3c(N)ncnn23)[C@H](OC(=O)CC)[C@@H]1OC(=O)CC [Example 193],610,125,1620,–,–,–,–,30000
"CCCCC(=O)O[C@H]1[C@H](c2ccc3c(N)ncnn23)O[C@](C#N)(COP(=O)(N[C@@H](C)C(=O)OCC)N[C@@H](C)C(=O)OCC)[C@H]1OC(=O)CCCC [Example 194, (2R,3S,4S,5S)-5-(4-Aminopyrrolo[2,1-f][1,2,4]triazin-7-yl)-2-(((bis(((S)-1-ethoxy-1-oxopropan-2-yl)amino)phosphoryl)oxy)methyl)-2-cyanotetrahydrofuran-3,4-diyl dipentanoate]",391,529,2090,–,–,–,–,30900
